# Data published in ChEMBL document CHEMBL1159221, “Crystal Structure of Sandaracopimaric Acid, a Lipoxygenase Inhibitor from Juniperus phoenicea” (J Nat Prod, 1995).
# pIC50: −log10 of the molar value. Activity calls are given as the source filed them. The calls are words filed in the database; no cut-off is given here.
# Columns and labels:
# [1] = Inhibition of soybean 15-lipoxygenase assessed as residual activity by spectrophotometry; parameters: species or system Glycine max
# [2] = test system: HGT; test: Growth inhibition of HGT cells; format: functional, cell-based; settings: Homo sapiens
# [3] = test system: MCF7; test: Growth inhibition of human MCF7 cells; format: functional, cell-based
smiles,measurement,setting,value
C=C[C@]1(C)C=C2CC[C@@H]3[C@](C)(CCC[C@@]3(C)C(=O)O)[C@H]2CC1 [SANDARACOPIMARIC ACID],pIC50,[1],3.19
same,Activity,[2],inactive
same,Activity,[3],inactive
